Legend:
[1] = Therapeutic plasma concentrations of memantine (literature); format: in vivo; conditions: conversion of 1 micromolar
Description: The maximum therapeutically relevant concentration of memantine is approximately 1 micromolar (Rammes et al., Curr. Neuropharmacol. 6(1): 55-78 (2008)), corresponding to a plasma level of about 180 ng/mL. A recommended therapeutic range is about 90 ng/mL to 150 ng/mL, while the laboratory alert value is 300 ng/mL (Hiemke et al., Pharmacopsychiatry 44:195 (2011)).

[2] = human; input parameter of simulation; cited from earlier work
[3] = PCL/SGF partition coefficient; format: physicochemical; conditions: 5:1 PCL diol (MW 530):ethyl acetate vs FaSSGF
Description: Partitioning behavior of an adamantane-class drug can be measured between a polycaprolactone phase (PCL phase) and a simulated gastric fluid phase (SGF phase), to give the partition coefficient PPCL-SGF between the two phases. Log PPCL-SGF can also be calculated. A 5:1 mixture of polycaprolactone diol (MW 530):ethyl acetate can be used as the PCL phase, and fasted-state simulated gastric fluid (FaSSGF) can be used as the SGF phase, such that PPCL-SGF=(concentration in polycaprolactone diol)/(concentration in FaSSGF)).
Partitioning of active pharmaceutical ingredient (API), such as an adamantane-class drug such as memantine, between the structural polymer, polycaprolactone (PCL), and fasted state simulated gastric fluid (FaSSGF) is of interest for predicting API release rate from PCL-based formulations. To measure the PCL-SGF partition coefficient of an API, a concentrated stock solution of API was added to a mixture of 1 mL FaSSGF and 1 mL of 5:1 PCL diol (MW 530):ethyl acetate. The sample was vortexed and centrifuged at 10000 rpm for 5 minutes. The SGF phase was analyzed by HPLC to measure drug concentration. The PCL phase was diluted in methanol prior to quantification on HPLC.

[4] = Thermal stability of memantine during hot melt processing; format: physicochemical; conditions: blended with polymer (20% drug, 2% P407, 20% Eudragit RS, PCL); up to 160° C. for up to 20 minutes
Description: The stability of memantine under conditions of hot melt processing was tested. The formulation used for hot melt processing was 20% drug, 0.5% SiO2, 0.5% alpha tocopherol, 2% P407, 20% Eudragit RS, with the balance of material made up of PCL.

[5] = cited from earlier work
[6] = dog, one compartment model; assumed input of the analysis; cited from earlier work

For `CC12CC3CC(C)(C1)CC(N)(C3)C2` [memantine], the “plasma level corresponding to maximum therapeutically relevant concentration” value [1] is listed as “about 180 ng/mL”, the “clearance (CL)” value [2] is listed as 5.2 L/h and the “mean volume of distribution” value [2] is listed as 9 to 11 L/kg. The “rate of absorption (Ka)” value [2] was 0.21 h⁻¹, the “PCL/SGF Partition Coefficient” value [3] was 0.28 and the “degradation during hot melt processing” value [4] was “without significant degradation”. For the same molecule, the “laboratory alert value (plasma)” value ([5]; Hiemke et al. 2011) was 300 ng/mL, the “maximum therapeutically relevant concentration” value ([5]; Rammes et al. 2008) was “approximately 1 micromolar” and the “elimination rate constant (ke)” value [6] was 0.076 h⁻¹.

Source: US11576866B2, “Gastric residence systems for sustained delivery of adamantane-class drugs” (Lyndra Therapeutics, Inc., priority 2016, dated 2023)
